Values after ≈ are worked out from the molar mass of the structure shown.
Legend:
[1] = Inhibition of NYH Cell line; assay type: functional, cell-based; conditions: Homo sapiens
[2] = Half life value at pH-7.4; assay type: ADME
[3] = Half life value in human serum; assay type: ADME, cell-free
[4] = Solubility at pH-5.5; assay type: physicochemical
[5] = Solubility at pH-7.4; assay type: physicochemical

Structure (SMILES)	IC50 [1] [nM]	half-life [2] [min]	half-life [3] [min]	solubility [4] [µg/mL]	solubility [5] [µg/mL]
COCCOCCOC(=O)OC[n+]1ccc(N/C(=N/CCCCCCOc2ccc(Cl)cc2)NC#N)cc1.[Cl-]	0.631	> 240	27	34	14
COCCOCCOCCOC(=O)OC[n+]1ccc(N/C(=N/CCCCCCOc2ccc(Cl)cc2)NC#N)cc1.[Cl-]	0.501	> 240	30	1200	83
Cl.N#CN/C(=N\CCCCCCOc1ccc(Cl)cc1)Nc1cc[n+](COC(=O)NCCCN)cc1.[Cl-]	15.8	> 240	> 240	> 1200	250
COCCOCCOCCOCCOC(=O)OC[n+]1ccc(N/C(=N/C#N)NCCCCCCOc2ccc(Cl)cc2)cc1.[Cl-] [TEGLARINAD CHLORIDE]	0.794	> 240	25	> 1200	120

More lines, in order of falling IC50 [1], values ahead:

IC50 [1] [nM]	half-life [2] [min]	half-life [3] [min]	solubility [4] [µg/mL]	solubility [5] [µg/mL]	Structure (SMILES)
5.01	–	–	–	–	CC(C)[C@@H](N)C(=O)OC[n+]1ccc(N/C(=N/CCCCCCOc2ccc(Cl)cc2)NC#N)cc1
0.501	–	–	2 (≈ 5.38 µM)	0.5 (≈ 1.34 µM)	N#CN=C(NCCCCCCOc1ccc(Cl)cc1)Nc1ccncc1 [CHS-828]
0.398	> 240	15	> 1200	38	Cl.N#CN/C(=N\CCCCCCOc1ccc(Cl)cc1)Nc1cc[n+](COC(=O)OCCCCCCCCCN)cc1.[Cl-]
